{"source": "paper PMC4560162", "about": "“Discovery of small molecule inhibitors of xyloglucan endotransglucosylase (XET) activity by high-throughput screening” (Phytochemistry, 2015)", "key": {"[1]": {"tested_on": "parsley XET activity", "assay": "Radiochemical XET assay (soluble xyloglucan + [3H]XXXGol)", "type": "biochemical", "details": "for effect on XET activity, radiochemical re-screen of 206 compounds (mostly LATCA): LATCA approx. 25 μM, EDI approx. 200 μg/ml, listed in order of decreasing effectiveness; for effect on XET activity, first radiochemical re-screen of EDI hits: most xenobiotics at 200 μg/ml (≈200–800 μM); for IC50: read-out: IC50 (concentration required for 50% inhibition of XET activity), radiochemical assay, 20 °C; for IC50 / effect on XET activity in radiochemical assays (as summarised in the discussion): soluble xyloglucan, laboratory light; for effect on XET activity in radiochemical assays (as summarised in the discussion): free solution", "protocol": "The parsley enzyme concentration was held constant, and the xenobiotics were tested at 200, 160, 120, 80, 40, 20, 10 and 0 μg/ml (concentrations in the final reaction mixture). Other details were as above.\nThe riboflavin-free controls received the same DMSO concentration."}, "[2]": {"tested_on": "Rosa cell-suspension cultures", "assay": "Cell expansion (SCV, PCV) in Rosa cell-suspension culture", "type": "cell-based, Rosa (\"Paul's Scarlet\" rose)", "details": "for concentration inhibiting growth (PCV) without membrane impairment: Rosa, 4 d incubation", "protocol": "(§1) Cell-suspension cultures of “Paul’s Scarlet” rose [a complex hybrid; genus Rosa; isolated in October 1957 from sections of young stem material; [Nickell and Tulecke, 1959]) and maize (Zea mays L., Black Mexican Sweetcorn, donated by Dr. I. Moore, Department of Botany, University of Edinburgh) were grown under constant dim illumination (10 μmol m^−2 s^−1) on an orbital shaker at 25 °C. Rose cells were maintained as described by [Chormova et al. (2014)] and maize cells as described by [Kerr and Fry (2003)].\n(§2) Eight xenobiotics that inhibited XET activity were selected for biological testing. Mini-cultures [2 ml, 5% (v/v) SCV; transferred from a standard culture 7 d after sub-culturing] were incubated in 12-well tissue culture microplates with the lids closed loosely. Xenobiotics were added as concentrated stocks in DMSO (final DMSO concentration 2%), and incubation was continued aseptically under standard conditions of temperature, lighting and shaking. After 4 d, 1 kBq of [^14C]proline was added per mini-culture. A small volume of medium (50 μl) was sampled 2 and 4 h after [^14C]proline addition and assayed for remaining extracellular ^14C. The culture was brought up to 10 ml with water and the settled and packed cell volumes (SCV, PCV) were then measured ([Fry and Street, 1980]). Most of the culture medium was then removed and the cells were finally killed by addition of 0.5 ml of 6% SDS. After 0.5 h at 100 °C, a 100-μl aliquot of the centrifuged SDS-extract was dried onto Whatman No. 3 paper, which was then washed in 75% ethanol supplemented with 0.5% acetic acid, thus removing free [^14C]proline and its low-Mr metabolites if any; radioactivity remaining on the paper ([^14C]protein) was then assayed."}, "[3]": {"tested_on": "Zea cell-suspension cultures", "assay": "Cell expansion (SCV, PCV) in Zea cell-suspension culture", "type": "cell-based, Zea mays", "details": "for concentration inhibiting growth (PCV) without membrane impairment: Zea, 4 d incubation", "protocol": "as §1, §2"}, "[4]": {"tested_on": "Zea cell-suspension cultures", "assay": "Membrane function ([14C]proline uptake) in Zea culture", "type": "cell-based, Zea mays", "details": "4 d after xenobiotic"}, "[5]": {"target": "cyclic-AMP-dependent protein kinase, PKA", "set-up": "method as in Losiewicz et al., 1994", "details": "ref Losiewicz et al., 1994; cited from earlier work"}, "[6]": {"tested_on": "Petroselinum xyloglucan endotransglucosylase (XET) activity", "assay": "Fluorescent dot-blot XET screen (cellulose-bound xyloglucan + XGO–SR on paper, in the dark)", "type": "biochemical, parsley", "details": "for effect on XET activity in dot-blot (inhibition / promotion): EDI 0.4 mg/ml, LATCA 50 μM, 2 h, dark, cellulose-bound xyloglucan", "protocol": "For inhibitor screening, 53 new 96-well plates were set up with 50 μl of parsley enzyme extract per well, and 1 μl of DMSO-solubilised xenobiotic was added to each well, giving concentrations of 0.4 mg/ml (EDI collection, with exceptions noted in Table S2) or 50 μM (LATCA collection) and 2% v/v DMSO.\nXET test-paper was prepared as before ([Fry, 1997]) and 112 × 75-mm sheets were attached to cellulose acetate overhead-projector sheets with ‘Spraymount’ adhesive. Each sheet was placed on a pre-cooled glass plate in a cold room at 4 °C.\nFor inhibitor screening (Fig. 2), 4 μl of a parsley enzyme/xenobiotic mixture was applied to each position on a sheet. Incubation at 20 °C for 2 h, washing, drying and photography were conducted essentially as above."}, "[7]": {"tested_on": "nine other cell-wall enzyme activities", "assay": "Dot-blot assays for nine additional wall enzyme activities", "type": "biochemical, parsley and lucerne (alfalfa)", "details": "xenobiotic 200 mg/l", "protocol": "Radiolabelled oligosaccharide ([1-^3H]Gal12-ol or [1-^3H]Xyl6-ol; 1 kBq; containing a trace of Orange G) was dried into each well of a 96-well plate. […] The mixture was incubated for 24 h (for Gal12-ol) or 48 h (for Xyl6-ol), then the 5-μl reaction mixture was dried onto each position on a piece of plain Whatman No. 1 paper in 96-well format. Visual inspection of the Orange G verified that the samples had been correctly applied to the paper. […] Thus, in this assay, radioactive spots reveal inhibition of the enzyme."}, "[8]": {"tested_on": "Rosa cell-suspension cultures", "assay": "Membrane function ([14C]proline uptake) in Rosa culture", "type": "cell-based, Rosa (\"Paul's Scarlet\" rose)", "details": "4 d after xenobiotic", "protocol": "Before testing the effects of XET-inhibitors on cell expansion, we defined their non-toxic concentrations. The eight XET-inhibiting xenobiotics mentioned in §2.7 were tested for cytotoxicity in cultured Rosa and Zea cells, by simple tests of the compounds’ ability to inhibit membrane and ribosome function based on [^14C]proline uptake and incorporation. In xenobiotic-free control 4-d-old Rosa cultures, 93.3% and 94.3% of the supplied [^14C]proline was absorbed from the medium within 2 and 4 h respectively, indicating healthy membrane function. In xenobiotic-free 4-d-old Zea cultures, the corresponding figures were 93.9% and 92.5%. By 4 h, 5.5% of the total [^14C]proline supplied had been incorporated into protein by Rosa and 9.3% by Zea cells, indicating healthy ribosome function. Against these control rates, we recorded any inhibition of membrane and ribosome function by the xenobiotics (Fig. 8). Each xenobiotic was tested at two concentrations (¼ and ^1/20 of the lowest non-tolerated concentration), which had been selected on the basis of preliminary experiments with a dilution series of the xenobiotic.\nas §2, with “A small volume of medium (50 μl) was sampled 2 and 4 h after [^14C]proline addition and assayed for remaining extracellular ^14C.” left out, “Most of the culture medium was then removed and the cells were finally killed by addition of 0.5 ml of 6% SDS.” left out"}}, "note": "Where “and” joins values, the source holds several entries; their conditions need not be identical. Equal values may be shown once. Read-outs that look alike come from different tables or passages of the source."}
{"molecule": "erythrosin B", "values": [{"measurement": "effect on XET activity, radiochemical re-screen of 206 compounds (mostly LATCA)", "setting": "[1]", "result": "inhibition"}, {"measurement": "effect on XET activity, first radiochemical re-screen of EDI hits", "setting": "[1]", "result": "inhibitory"}, {"measurement": "IC50", "setting": "[1]; 2 h", "result": 36, "unit": "µM"}, {"measurement": "IC50", "setting": "[1]; 2 h, listed as erythrosin B", "result": "~30", "unit": "µM"}, {"measurement": "concentration that inhibited cell expansion (abstract)", "setting": "[2]; Rosa cell-suspension culture", "result": 1, "unit": "µM"}, {"measurement": "concentration inhibiting growth (PCV) without membrane impairment", "setting": "[2]", "result": 1.1, "unit": "µM"}, {"measurement": "concentration that inhibited cell expansion / culture growth (abstract)", "setting": "[3]; Zea cell-suspension culture", "result": 1, "unit": "µM"}, {"measurement": "membrane function", "setting": "[4]; at the concentrations tested", "result": "impaired"}]}
{"molecule": "CN1CC[C@H](c2c(O)cc(O)c3c(=O)cc(-c4ccccc4Cl)oc23)[C@H](O)C1", "note": "[flavopiridol]", "values": [{"measurement": "IC50", "setting": "[5]", "result": 145, "unit": "µM"}]}
{"molecule": "O=C(O[C@@H]1Cc2c(O)cc(O)cc2O[C@@H]1c1cc(O)c(O)c(O)c1)c1cc(O)c(O)c(O)c1", "note": "[epigallocatechin gallate, (−)-epigallocatechin gallate]", "values": [{"measurement": "effect on XET activity in dot-blot (inhibition / promotion)", "setting": "[6]", "result": "promoted"}, {"measurement": "effect on XET activity in dot-blot (inhibition / promotion)", "setting": "[6]; listed as (−)-epigallocatechin gallate", "result": "coagulating promoter"}, {"measurement": "coagulation ('type c' effect) in dot-blot", "setting": "[6]; EDI collection, 0.4 mg/ml in enzyme mixture", "result": "coagulation"}, {"measurement": "IC50", "setting": "[1]; 2 h", "result": "~400", "unit": "µM"}, {"measurement": "effect on XET activity in radiochemical assays (as summarised in the discussion)", "setting": "[1]", "result": "inhibited"}, {"measurement": "number of the nine other wall enzyme activities inhibited", "setting": "[7]", "result": "eight"}, {"measurement": "concentration inhibiting growth (PCV) without membrane impairment", "setting": "[2]", "result": 870, "unit": "µM"}, {"measurement": "concentration inhibiting growth (PCV) without membrane impairment", "setting": "[3]", "result": 40, "unit": "µM"}, {"measurement": "membrane function", "setting": "[4]; higher tested concentration", "result": "impaired"}]}
{"molecule": "Cc1cc2nc3c(=O)[nH]c(=O)nc-3n(C[C@H](O)[C@H](O)[C@H](O)CO)c2cc1C", "note": "[riboflavin]", "values": [{"measurement": "[3H]Xyloglucan formed, Low light", "setting": "[1]; 0.5 mM riboflavin, 0.2 lux, 2 h, control without riboflavin 8861 ± 105, mean ± SE of 4", "result": "5390 ± 130", "unit": "cpm"}, {"measurement": "[3H]Xyloglucan formed, High light", "setting": "[1]; 0.5 mM riboflavin, 1100 lux, 2 h, control without riboflavin 8942 ± 349, mean ± SE of 4", "result": "807 ± 63", "unit": "cpm"}, {"measurement": "effect on XET activity, radiochemical re-screen of 206 compounds (mostly LATCA)", "setting": "[1]", "result": "inhibition"}, {"measurement": "IC50", "setting": "[1]; 2 h", "result": "29 µM and ~30 µM"}, {"measurement": "number of the nine other wall enzyme activities inhibited", "setting": "[7]", "result": "eight"}, {"measurement": "membrane function", "setting": "[4]; at the concentrations tested", "result": "impaired"}]}
{"molecule": "CC1=C(/C=C/C(C)=C/C=C/C(C)=C\\C(=O)O)C(C)(C)CCC1", "note": "[13-cis-retinoic acid]", "values": [{"measurement": "effect on XET activity in dot-blot (inhibition / promotion)", "setting": "[6]", "result": "did not show inhibitory effects"}, {"measurement": "effect on XET activity, radiochemical re-screen of 206 compounds (mostly LATCA)", "setting": "[1]", "result": "inhibition"}, {"measurement": "membrane function", "setting": "[8]; higher tested concentration", "result": "impaired"}, {"measurement": "membrane function", "setting": "[4]; at the concentrations tested", "result": "only slightly"}]}
{"molecule": "CCOc1ccc(Nc2ccc(/C(=C3C=C/C(=[N+](/CC)Cc4cccc(S(=O)(=O)[O-])c4)C=C/3C)c3ccc(N(CC)Cc4cccc(S(=O)(=O)O)c4)cc3C)cc2)cc1", "note": "[brilliant blue G]", "values": [{"measurement": "effect on XET activity, first radiochemical re-screen of EDI hits", "setting": "[1]", "result": "inhibitory"}, {"measurement": "number of the nine other wall enzyme activities inhibited", "setting": "[7]", "result": "three"}, {"measurement": "concentration inhibiting growth (PCV) without membrane impairment", "setting": "[3]", "result": 100, "unit": "µM"}, {"measurement": "membrane function", "setting": "[8]; higher tested concentration", "result": "impaired"}, {"measurement": "membrane function", "setting": "[4]; higher tested concentration", "result": "impaired"}]}
{"molecule": "COC(=O)/C(=C1/OC(=O)C(c2ccccc2)=C1O)c1ccccc1", "note": "[vulpinic acid]", "values": [{"measurement": "effect on XET activity in dot-blot (inhibition / promotion)", "setting": "[6]", "result": "did not show inhibitory effects"}, {"measurement": "effect on XET activity in radiochemical assays (as summarised in the discussion)", "setting": "[1]", "result": "inhibitor"}, {"measurement": "number of the nine other wall enzyme activities inhibited", "setting": "[7]", "result": "two"}, {"measurement": "membrane function", "setting": "[8]; at the concentrations tested", "result": "impaired"}]}
